Data taken from patent US20140303092A1 (CHIMERIX, INC., priority 2011, published 2014).

Assay: Study HDP-CDV-201: safety and tolerability (adverse events, laboratory abnormalities, discontinuations)
Type: in vivo, human (adult allogeneic HSCT recipients)
Procedure: Clinical Studies of HDP-CDV were performed and described in detail in the following Examples. For example, HDP-CDV-201 is a placebo-controlled, dose-escalating trial in HSCT CMV (R+) recipients, evaluating the ability of HDP-CDV to prevent or control CMV infection was carried out. Five cohorts were established in which participants or subjects received either placebo or the HDP-CDV orally, in doses ranging from 40 mg weekly (QW) to 200 mg twice weekly (BIW). Subjects who were post-HSCT were enrolled at the time of engraftment and randomized to HDP-CDV or placebo (3 to 1 ratio) and received blinded therapy until approximately 100 day post-transplantation. HDP-CDV doses were 40 mg QW, 100 mg QW, 200 mg QW, 200 mg BIW and 100 mg BIW. Escalation to the next dose was decided by the data monitoring committee after review of the safety data from the previous Cohort. Subjects who developed CMV disease or CMV infection requiring pre-emptive therapy with local standard of care were discontinued from blinded therapy and followed for 4 weeks. Subjects who completed treatment with blinded therapy were followed for 8 weeks post-therapy.
Data from Study HDP-CDV-201 also provided characterization of the safety and tolerability profile of HDP-CDV when administered for the prevention or control of CMV infection in high risk (R^+) post-HSCT adult subjects.
The Safety population (SAFETY) included all randomized subjects who took at least one dose of study treatment. This population was used to summarize safety outcomes based on the treatment actually received, in cases where a subject was treated contrary to the randomization schedule.
The safety and tolerability profile of HDP-CDV, including subject demographics and Baseline characteristics; the AE profile; and laboratory abnormalities of interest were analyzed in the cohorts followed in this investigation.
Subjects completing the treatment period received a full course of study medication; those completing the entire study attended visits through 8 weeks of follow up. Subjects who discontinued treatment may have done so for protocol specified reasons (e.g. development of clinically significant CMV infection requiring preemptive treatment with excluded anti-CMV medications) or for other reasons (e.g., withdrawal, adverse events, loss to follow-up). The disposition of subjects in Study HDP-CDV-201 during the double-blind, placebo-controlled treatment period (through Week 11) is listed by dosing Cohort in TABLE 23.
Adverse events were examined by severity to ensure that all safety signals were identified in this study population. Because of the frequency of events in HSCT recipients, particular attention was given to evaluation of Grade 3 […], 4 (severe), and 5 (fatal) adverse events.
Only those preferred terms for which at least one Grade 3 or higher event was experienced in any treatment group are listed. Cytomegalovirus-related AEs are excluded from this analysis.
HDP-CDV is a lipid conjugate of CDV. Because CDV is known to have adverse effects on renal function and bone marrow, decreased GFR and persistent neutropenia were identified as AEs of special interest. Key renal and hematological (TABLE 30) laboratory parameters were measured and listed below by Study HDP-CDV-201 treatment groups. TABLE 30 includes abnormal levels of serum creatinine, neutrophils, platelets, WBCs, and hemoglobin and includes data at Screening and during the treatment period.
A common metric for unit based dosing of medications is by weight (mg/kg). When the distribution of weights was examined for all subjects participating in the study, the median was 78 kg and the lower 25th percentile weight was approximately 65 kg, which translates to a cut-off of ˜3 mg/kg for a 200 mg total weekly dose. Based upon this approach, a cut-off of 3 mg/kg was used to assess the frequency of diarrhea and associated GI AEs reported for the subjects in Cohorts 3 or 4a (TABLE 40).

## CCCCCCCCCCCCCCCCOCCCOP(=O)(O)COC(CO)Cn1ccc(N)nc1=O (stereo not drawn) [HDP-CDV]
Cohort 3
  Grade of hepatobiliary AE acute liver injury, subject 3025: 1
  Grade of hepatobiliary AE gallbladder sludge, subject 3044: 2
  Grade of hepatobiliary AE hyperbilirubenemia, subject 3030: 2
  Grade of hepatobiliary AE hyperbilirubinemia, subject 3009: 1
  Grade of hepatobiliary AE hyperbilirubinemia, subject 3044: 4
  Grade of hepatobiliary AE jaundiced, subject 3030: 2
  Outcome of hepatobiliary AE acute liver injury, subject 3007: not recovered/not
  Outcome of hepatobiliary AE acute liver injury, subject 3025: recovered/resolved
  Outcome of hepatobiliary AE gallbladder sludge, subject 3044: not recovered/not
  Outcome of hepatobiliary AE hyperbilirubenemia, subject 3030: not recovered/not
  Outcome of hepatobiliary AE hyperbilirubinemia, subject 3009: recovered/resolved
  Outcome of hepatobiliary AE hyperbilirubinemia, subject 3044: not recovered/not
  Outcome of hepatobiliary AE jaundiced, subject 3030: not recovered/not
  Relationship of hepatobiliary AE acute liver injury, subject 3007: not related
  Relationship of hepatobiliary AE acute liver injury, subject 3025: not related
  Relationship of hepatobiliary AE gallbladder sludge, subject 3044: not related
  Relationship of hepatobiliary AE hyperbilirubenemia, subject 3030: not related
  Relationship of hepatobiliary AE hyperbilirubinemia, subject 3009: not related
  Relationship of hepatobiliary AE hyperbilirubinemia, subject 3044: not related
  Relationship of hepatobiliary AE jaundiced, subject 3030: not related
  subjects discontinued due to neutropenia: 2 subject(s)
Cohort 3, 200 mg QW
  ALT (Screening) >3 × ULN-5 × ULN, subjects: 0
  ALT (Screening) >5 × ULN-10 × ULN, subjects: 0
  ALT (Screening) >10 × ULN-20 × ULN, subjects: 0
  ALT (Screening) >20 × ULN, subjects: 0
  ALT (any time during therapy) >3 × ULN-5 × ULN, subjects: 4 (10.5%)
  ALT (any time during therapy) >5 × ULN-10 × ULN, subjects: 5 (13.2%)
  ALT (any time during therapy) >10 × ULN-20 × ULN, subjects: 0
  ALT (any time during therapy) >20 × ULN, subjects: 1 (2.6%)
  AST (Screening) >3 × ULN-5 × ULN, subjects: 0
  AST (Screening) >5 × ULN-10 × ULN, subjects: 0
  AST (Screening) >10 × ULN-20 × ULN, subjects: 0
  AST (Screening) >20 × ULN, subjects: 0
  AST (any time during therapy) >3 × ULN-5 × ULN, subjects: 5 (13.2%)
  AST (any time during therapy) >5 × ULN-10 × ULN, subjects: 1 (2.6%)
  AST (any time during therapy) >10 × ULN-20 × ULN, subjects: 0
  AST (any time during therapy) >20 × ULN, subjects: 0
  Alkaline Phosphatase (Screening) >2.5-5.0 × ULN, subjects: 0
  Alkaline Phosphatase (Screening) >5.0-20.0 × ULN, subjects: 0
  Alkaline Phosphatase (Screening) >20.0 × ULN, subjects: 0
  Alkaline Phosphatase (Screening) >ULN-[…] ULN, subjects: 5 (13.5%)
  Alkaline Phosphatase (any time during therapy) >2.5-5.0 × ULN, subjects: 0
  Alkaline Phosphatase (any time during therapy) >5.0-20.0 × ULN, subjects: 0
  Alkaline Phosphatase (any time during therapy) >20.0 × ULN, subjects: 0
  Alkaline Phosphatase (any time during therapy) >ULN-[…] ULN, subjects: 14 (36.8%)
  GI AE Leading to Study Drug Discontinuation: Abdominal pain, subjects: 0
  GI AE Leading to Study Drug Discontinuation: Diarrhoea, subjects: 1 (2.6%)
  GI AE Leading to Study Drug Discontinuation: Dyspepsia, subjects: 2 (5.1%)
  GI AE Leading to Study Drug Discontinuation: Nausea, subjects: 0
  GI AE Leading to Study Drug Discontinuation: Vomiting, subjects: 0
  GI AEs Leading to Study Drug Discontinuation: Total subjects discontinued: 3 (7.7%)
  Gastrointestinal AE Abdominal discomfort, subjects: 1 (2.6%)
  Gastrointestinal AE Abdominal distention, subjects: 0
  Gastrointestinal AE Abdominal pain upper, subjects: 1 (2.6%)
  Gastrointestinal AE Abdominal pain, subjects: 5 (12.8%)
  Gastrointestinal AE Constipation, subjects: 2 (5.1%)
  Gastrointestinal AE Diarrhoea, subjects: 13 (33.3%)
  Gastrointestinal AE Diverticulum intestinal haemorragic, subjects: 1 (2.6%)
  Gastrointestinal AE Dyspepsia, subjects: 4 (10.3%)
  Gastrointestinal AE Dysphagia, subjects: 0
  Gastrointestinal AE Epigastric discomfort, subjects: 0
  Gastrointestinal AE Flatulence, subjects: 1 (2.6%)
  Gastrointestinal AE GERD, subjects: 2 (5.1%)
  Gastrointestinal AE Gastritis, subjects: 0
  Gastrointestinal AE Haematochezia, subjects: 0
  Gastrointestinal AE Haemorroids, subjects: 0
  Gastrointestinal AE Large intestinal ulcer, subjects: 0
  Gastrointestinal AE Nausea, subjects: 11 (28.2%)
  Gastrointestinal AE Odynophagia, subjects: 0
  Gastrointestinal AE Oesophagitis, subjects: 0
  Gastrointestinal AE Retching, subjects: 0
  Gastrointestinal AE Vomiting, subjects: 6 (15.4%)
  Hepatobiliary clinical AE Cholelithiasis, subjects: 0
  Hepatobiliary clinical AE Hepatomegaly, subjects: 0
  Hepatobiliary clinical AE Hyperbilirubinaemia, subjects: 3 (7.7%)
  Hepatobiliary clinical AE Jaundice, subjects: 1 (2.6%)
  Hepatobiliary clinical AE Liver injury, subjects: 2 (5.1%)
  Intensity of Gastrointestinal AEs, Grade 1, subjects: 12 (30.8%)
  Intensity of Gastrointestinal AEs, Grade 2, subjects: 10 (25.6%)
  Intensity of Gastrointestinal AEs, Grade 3, subjects: 2 (5.1%)
  Intensity of Gastrointestinal AEs, Grade 4, subjects: 2 (5.1%)
  Intensity of Gastrointestinal AEs, Grade 5, subjects: 0
  Proportion of Subjects with Stage 3 or 4 Gut GVHD: 0%
  Serum ALT level, Median fold increase from Baseline at Follow-up Week 1: 2.52 fold
  Serum ALT level, Median fold increase from Baseline at Follow-up Week 4: 1.06 fold
  Serum ALT level, Peak Median fold increase from Baseline: 3.13 fold
  Subjects completed study: 14 (35.9%) n (%)
  TEAE Abdominal pain Grade 2, subjects: 1 (2.6%)
  TEAE Abdominal pain Grade 3, subjects: 1 (2.6%)
  TEAE Abdominal pain Grade 4, subjects: 0
  TEAE Abdominal pain Grade 5, subjects: 0
  TEAE Abdominal pain Overall Frequency, subjects: 5 (12.8%)
  TEAE Diarrhea Grade 2, subjects: 5 (12.8%)
  TEAE Diarrhea Grade 3, subjects: 2 (5.1%)
  TEAE Diarrhea Grade 4, subjects: 0
  TEAE Diarrhea Grade 5, subjects: 0
  TEAE Diarrhea Overall Frequency, subjects: 13 (33.3%)
  TEAE Hypokalaemia Grade 2, subjects: 2 (5.1%)
  TEAE Hypokalaemia Grade 3, subjects: 0
  TEAE Hypokalaemia Grade 4, subjects: 0
  TEAE Hypokalaemia Grade 5, subjects: 0
  TEAE Hypokalaemia, subjects: 5 (12.8%)
  TEAE Nausea Grade 2, subjects: 4 (10.3%)
  TEAE Nausea Grade 3, subjects: 1 (2.6%)
  TEAE Nausea Grade 4, subjects: 0
  TEAE Nausea Grade 5, subjects: 0
  TEAE Nausea Overall Frequency, subjects: 11 (28.2%)
  TEAE Vomiting Grade 2, subjects: 1 (2.6%)
  TEAE Vomiting Grade 3, subjects: 1 (2.6%)
  TEAE Vomiting Grade 4, subjects: 0
  TEAE Vomiting Grade 5, subjects: 0
